Source: ChEMBL document CHEMBL2440029, “Discovery and characterization of NVP-QAV680, a potent and selective CRTh2 receptor antagonist suitable for clinical testing in allergic diseases” (Bioorg Med Chem, 2013)
pIC50, pKi: −log10 of the molar value. ≈ marks a conversion by molar mass, not a printed value. One block for each molecule: values may come before it. Calls of active or inactive are those of the source. The calls are words filed in the database; no cut-off is given here.

Assays:
[1] = biological target: T1, Prostaglandin D2 receptor 2 (Homo sapiens, UniProt Q9Y5Y4); test: Displacement of [3H]-prostaglandin D2 from human CRTh2 receptor expressed in CHO cells after 2 hrs; assay type: cell-based
T1 sequence (Q9Y5Y4 whole entry): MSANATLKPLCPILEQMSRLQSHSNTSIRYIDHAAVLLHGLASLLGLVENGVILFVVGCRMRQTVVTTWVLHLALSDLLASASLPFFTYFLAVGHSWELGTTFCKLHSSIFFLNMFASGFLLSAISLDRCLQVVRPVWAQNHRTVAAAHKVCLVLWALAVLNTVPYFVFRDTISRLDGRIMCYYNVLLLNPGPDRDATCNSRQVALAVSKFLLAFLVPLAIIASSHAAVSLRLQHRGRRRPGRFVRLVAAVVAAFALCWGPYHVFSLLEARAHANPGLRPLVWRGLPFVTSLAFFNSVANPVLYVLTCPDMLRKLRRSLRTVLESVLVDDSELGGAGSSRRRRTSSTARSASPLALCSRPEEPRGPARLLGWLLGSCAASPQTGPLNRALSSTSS

[2] = biological target: T2, Prostaglandin D2 receptor 2 (Homo sapiens) (UniProt Q9Y5Y4); test: Antagonist activity at human CRTh2 receptor expressed in CHO cells assessed as inhibition of prostaglandin D2 and forskolin-induced cAMP accumulation after 45 mins in presence of 0.1% HSA; assay type: functional, cell-based
T2 sequence (whole entry): T1 sequence (Q9Y5Y4 whole entry)

[3] = biological target: T1, Prostaglandin D2 receptor 2; test: Antagonist activity at human CRTh2 receptor expressed in CHO cells assessed as inhibition of prostaglandin D2 and forskolin-induced cAMP accumulation after 45 mins; assay type: functional, cell-based
[4] = biological target: Prostaglandin G/H synthase 1 (Homo sapiens) (UniProt P23219); test: Inhibition of human COX1 at 10 uM
[5] = biological target: T3, Prostaglandin G/H synthase 2 (Homo sapiens) (UniProt P35354); test: Inhibition of human COX2 at 10 uM
T3 sequence (whole entry): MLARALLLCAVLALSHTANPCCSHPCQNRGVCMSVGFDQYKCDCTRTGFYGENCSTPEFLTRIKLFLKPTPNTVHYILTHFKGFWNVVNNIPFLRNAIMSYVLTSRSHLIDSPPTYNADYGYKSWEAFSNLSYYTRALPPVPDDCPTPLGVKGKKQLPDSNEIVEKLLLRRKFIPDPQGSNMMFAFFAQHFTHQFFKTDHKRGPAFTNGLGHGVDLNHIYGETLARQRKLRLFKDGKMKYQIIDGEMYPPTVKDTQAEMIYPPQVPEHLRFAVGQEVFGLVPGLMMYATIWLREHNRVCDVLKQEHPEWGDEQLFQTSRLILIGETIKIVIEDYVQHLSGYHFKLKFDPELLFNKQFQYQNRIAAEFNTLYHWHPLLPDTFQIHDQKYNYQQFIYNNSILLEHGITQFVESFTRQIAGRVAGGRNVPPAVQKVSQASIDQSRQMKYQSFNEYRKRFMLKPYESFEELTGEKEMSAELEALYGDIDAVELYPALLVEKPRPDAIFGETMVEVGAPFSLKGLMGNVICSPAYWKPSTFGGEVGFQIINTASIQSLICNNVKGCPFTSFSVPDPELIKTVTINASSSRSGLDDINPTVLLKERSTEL

[6] = Antagonist activity at CRTh2 receptor in human isolated eosinophil assessed as inhibition of DK-PGD2-induced shape change after 5 mins by flow cytometry
[7] = biological target: T4, Prostaglandin D2 receptor 2 (Mus musculus, UniProt Q9Z2J6); test: Antagonist activity at mouse CRTh2 receptor expressed in CHO-K1 cells assessed as inhibition of […]-GTP-gamma-S binding after 50 mins by liquid scintillation counting; assay type: functional, cell-based
[8] = Oral bioavailability in Wistar rat at 100 mg/kg; assay type: ADME, organism-based; conditions: in vivo
[9] = biological target: T4, Prostaglandin D2 receptor 2; test: Displacement of [3H]-prostaglandin D2 from mouse CRTh2 receptor expressed in CHO cells after 2 hrs; assay type: cell-based
[10] = AUC (0 to 48 hrs) in Wistar rat at 100 mg/kg, po; assay type: ADME, organism-based; set-up: time < 48 hr, dose 100 mg/kg, route oral; conditions: plasma
[11] = Oral bioavailability in Wistar rat at 3 mg/kg; assay type: ADME, organism-based; conditions: in vivo
[12] = AUC (0 to 48 hrs) in Wistar rat at 3 mg/kg, po; assay type: ADME, organism-based; set-up: time < 48 hr, dose 3 mg/kg, route oral; conditions: plasma
[13] = Tmax in Wistar rat at 3 mg/kg, po; assay type: ADME, organism-based; set-up: dose 3 mg/kg, route oral; conditions: in vivo
[14] = Tmax in Wistar rat at 100 mg/kg, po; assay type: ADME, organism-based; set-up: dose 100 mg/kg, route oral; conditions: in vivo
[15] = Cmax in Wistar rat at 3 mg/kg, po; assay type: ADME, organism-based; set-up: dose 3 mg/kg, route oral; conditions: in vivo
[16] = Cmax in Wistar rat at 100 mg/kg, po; assay type: ADME, organism-based; set-up: dose 100 mg/kg, route oral; conditions: in vivo
[17] = Volume of distribution at steady state in Wistar rat at 0.5 mg/kg, iv; assay type: ADME, organism-based; set-up: dose 0.5 mg/kg, route intravenous; conditions: in vivo, read-out: Vdss
[18] = Terminal half life in Wistar rat at 0.5 mg/kg, iv; assay type: ADME, organism-based; set-up: dose 0.5 mg/kg, route intravenous; conditions: in vivo, read-out: beta t1/2 (converted)
[19] = Solubility of the compound at pH 6.8; assay type: physicochemical; conditions: buffer
[20] = Clearance in Wistar rat at 0.5 mg/kg, iv; assay type: ADME, organism-based; set-up: dose 0.5 mg/kg, route intravenous; conditions: in vivo
[21] = Apparent permeability from apical to basolateral side in human Caco2 cells; assay type: ADME, cell-based; conditions: Caco-2
[22] = Apparent permeability from basolateral to apical side in human Caco2 cells; assay type: ADME, cell-based; conditions: Caco-2
[23] = Cmax in Balb/c mouse at 5 mg/kg, po; assay type: ADME, organism-based; set-up: dose 5 mg/kg, route oral; conditions: in vivo
[24] = biological target: Polyunsaturated fatty acid 5-lipoxygenase (Homo sapiens) (UniProt P09917); test: Inhibition of human 5-lipoxygenase at 10 uM
[25] = biological target: Leukotriene B4 receptor 1 (Homo sapiens) (UniProt Q15722); test: Inhibition of LTB4 receptor (unknown origin) at 10 uM
Thromboxane A2 receptor = Thromboxane A2 receptor (Homo sapiens, UniProt P21731); test: Inhibition of prostanoid TP receptor (unknown origin)
[26] = biological target: Prostaglandin E2 receptor EP4 subtype (Homo sapiens, UniProt P35408); test: Inhibition of prostanoid EP4 receptor (unknown origin)
[27] = biological target: Prostaglandin F2-alpha receptor (Homo sapiens, UniProt P43088); test: Inhibition of prostanoid FP receptor (unknown origin)
[28] = biological target: Prostaglandin E2 receptor EP3 subtype (Homo sapiens, UniProt P43115); test: Inhibition of prostanoid EP3 receptor (unknown origin)
Prostacyclin receptor = Prostacyclin receptor (Homo sapiens, UniProt P43119); test: Inhibition of prostanoid IP receptor (unknown origin)
[29] = biological target: Prostaglandin E2 receptor EP2 subtype (Homo sapiens, UniProt P43116); test: Inhibition of prostanoid EP2 receptor (unknown origin)
[30] = biological target: Prostaglandin D2 receptor (Homo sapiens, UniProt Q13258); test: Inhibition of prostanoid DP1 receptor (unknown origin)
Cytochrome P450 2D6 = Cytochrome P450 2D6 (Homo sapiens, UniProt P10635); test: Inhibition of human CYP2D6; assay type: ADME
Cytochrome P450 3A4 = Cytochrome P450 3A4 (Homo sapiens, UniProt P08684); test: Inhibition of human CYP3A4; assay type: ADME
Cytochrome P450 1A2 = Cytochrome P450 1A2 (Homo sapiens, UniProt P05177); test: Inhibition of human CYP1A2; assay type: ADME
Cytochrome P450 2C9 = Cytochrome P450 2C9 (Homo sapiens, UniProt P11712); test: Inhibition of human CYP2C9; assay type: ADME
[31] = biological target: Cysteinyl leukotriene receptor 1 (Homo sapiens) (UniProt Q9Y271); test: Inhibition of CysLT1 receptor (unknown origin) at 10 uM
Mus musculus = test: Inhibition of FITC hapten-induced ear edema in po dosed Balb/cJBomTac mouse allergic contact dermatitis model after 24 hrs; assay type: functional
[32] = biological target: Cysteinyl leukotriene receptor 2 (Homo sapiens) (UniProt Q9NS75); test: Inhibition of CysLT2 receptor (unknown origin) at 10 uM
Rattus norvegicus [33] = test: Inhibition of eosinophil recruitment in bronchoalveolar lavage in po dosed Sprague-Dawley rat allergic disease model; assay type: functional, organism-based; conditions: Lung
Rattus norvegicus [34] = test: Inhibition of eosinophil recruitment in bronchoalveolar lavage in Sprague-Dawley rat allergic disease model at 1 mg/kg, po; assay type: functional, organism-based; set-up: dose 1 mg/kg; conditions: Lung
[35] = Fraction unbound in Sprague-Dawley rat plasma at 0.1 to 0.3 mg/kg, po; assay type: ADME, organism-based; set-up: dose 0.1-0.3 mg/kg, route oral
[36] = Inhibition of DK-PGD2-induced IL-13 production in human CD4+ Th2 cells after 6 to 8 hrs; assay type: functional, cell-based
[37] = Inhibition of DK-PGD2-induced IL-5 production in human CD4+ Th2 cells after 6 to 8 hrs; assay type: functional, cell-based

Sequence of Prostaglandin G/H synthase 1 (Homo sapiens) (P23219 whole entry): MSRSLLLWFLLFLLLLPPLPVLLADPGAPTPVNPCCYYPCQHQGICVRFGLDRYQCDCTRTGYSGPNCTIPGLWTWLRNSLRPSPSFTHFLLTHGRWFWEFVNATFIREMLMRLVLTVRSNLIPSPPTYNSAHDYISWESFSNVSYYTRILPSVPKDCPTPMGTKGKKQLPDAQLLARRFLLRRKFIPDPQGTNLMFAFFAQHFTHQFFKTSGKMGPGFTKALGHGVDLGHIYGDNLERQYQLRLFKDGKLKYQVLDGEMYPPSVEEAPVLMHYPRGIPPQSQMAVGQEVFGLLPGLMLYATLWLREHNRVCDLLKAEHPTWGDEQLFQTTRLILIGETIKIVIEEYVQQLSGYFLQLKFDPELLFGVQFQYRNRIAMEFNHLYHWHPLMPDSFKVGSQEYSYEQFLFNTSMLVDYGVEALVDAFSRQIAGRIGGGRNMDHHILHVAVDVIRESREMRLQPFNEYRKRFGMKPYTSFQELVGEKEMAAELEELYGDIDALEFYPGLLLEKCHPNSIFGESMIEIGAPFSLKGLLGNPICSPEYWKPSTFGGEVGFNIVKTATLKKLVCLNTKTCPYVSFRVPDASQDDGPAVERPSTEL
T4 sequence (Q9Z2J6 whole entry): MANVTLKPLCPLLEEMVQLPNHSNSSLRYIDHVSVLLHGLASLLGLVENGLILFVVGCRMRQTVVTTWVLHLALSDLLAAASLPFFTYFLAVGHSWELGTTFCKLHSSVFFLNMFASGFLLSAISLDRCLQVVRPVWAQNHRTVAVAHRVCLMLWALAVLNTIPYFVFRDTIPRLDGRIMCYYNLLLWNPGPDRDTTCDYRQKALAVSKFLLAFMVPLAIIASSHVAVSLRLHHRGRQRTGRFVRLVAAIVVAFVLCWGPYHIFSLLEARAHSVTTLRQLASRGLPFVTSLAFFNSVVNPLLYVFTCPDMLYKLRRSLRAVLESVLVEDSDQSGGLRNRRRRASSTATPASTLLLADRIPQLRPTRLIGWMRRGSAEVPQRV
Sequence of Cytochrome P450 2D6 (P10635 whole entry): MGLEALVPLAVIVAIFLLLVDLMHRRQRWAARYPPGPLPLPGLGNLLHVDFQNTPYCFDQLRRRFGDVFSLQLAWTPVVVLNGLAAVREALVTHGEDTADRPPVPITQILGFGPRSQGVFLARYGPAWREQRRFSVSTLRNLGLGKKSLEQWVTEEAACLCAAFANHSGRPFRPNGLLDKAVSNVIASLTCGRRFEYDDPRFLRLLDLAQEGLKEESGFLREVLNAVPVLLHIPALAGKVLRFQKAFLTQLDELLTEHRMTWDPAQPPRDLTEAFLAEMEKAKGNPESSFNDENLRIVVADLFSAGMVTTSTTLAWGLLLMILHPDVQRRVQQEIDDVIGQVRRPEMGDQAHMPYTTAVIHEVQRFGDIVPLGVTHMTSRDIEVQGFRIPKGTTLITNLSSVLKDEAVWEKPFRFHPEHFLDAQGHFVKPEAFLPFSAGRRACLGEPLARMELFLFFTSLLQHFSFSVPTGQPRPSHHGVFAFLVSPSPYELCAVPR
Sequence of Polyunsaturated fatty acid 5-lipoxygenase (Homo sapiens) (P09917 whole entry): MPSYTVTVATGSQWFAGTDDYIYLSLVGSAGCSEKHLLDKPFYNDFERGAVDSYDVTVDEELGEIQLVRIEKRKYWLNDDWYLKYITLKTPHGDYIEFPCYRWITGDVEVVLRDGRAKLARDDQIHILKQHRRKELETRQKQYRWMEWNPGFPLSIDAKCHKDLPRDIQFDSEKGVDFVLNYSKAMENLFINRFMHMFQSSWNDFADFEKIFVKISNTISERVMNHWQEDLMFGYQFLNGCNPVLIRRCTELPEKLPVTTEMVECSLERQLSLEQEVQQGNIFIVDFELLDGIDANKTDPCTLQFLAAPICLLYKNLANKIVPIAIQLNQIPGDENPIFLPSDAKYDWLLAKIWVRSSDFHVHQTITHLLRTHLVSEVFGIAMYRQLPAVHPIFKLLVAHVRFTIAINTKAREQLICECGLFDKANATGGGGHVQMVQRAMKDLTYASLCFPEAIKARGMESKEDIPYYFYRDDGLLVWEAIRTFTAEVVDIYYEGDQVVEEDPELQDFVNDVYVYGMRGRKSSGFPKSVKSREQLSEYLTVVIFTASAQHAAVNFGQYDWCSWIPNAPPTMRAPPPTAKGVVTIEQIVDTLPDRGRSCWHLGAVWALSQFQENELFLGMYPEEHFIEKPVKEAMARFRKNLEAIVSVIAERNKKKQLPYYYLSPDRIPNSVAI
Sequence of Prostacyclin receptor (P43119 whole entry): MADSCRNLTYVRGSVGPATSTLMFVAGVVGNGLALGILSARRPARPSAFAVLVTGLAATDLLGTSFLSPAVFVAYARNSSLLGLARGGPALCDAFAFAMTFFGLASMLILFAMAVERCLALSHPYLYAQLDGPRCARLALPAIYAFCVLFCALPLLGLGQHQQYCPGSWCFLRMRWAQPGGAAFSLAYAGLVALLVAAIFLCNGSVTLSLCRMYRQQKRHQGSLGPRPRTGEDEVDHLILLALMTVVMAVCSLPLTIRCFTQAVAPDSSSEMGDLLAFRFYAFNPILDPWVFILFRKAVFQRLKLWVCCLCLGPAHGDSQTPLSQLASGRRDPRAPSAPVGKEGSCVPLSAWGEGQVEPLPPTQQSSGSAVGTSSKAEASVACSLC
Sequence of Thromboxane A2 receptor (P21731 whole entry): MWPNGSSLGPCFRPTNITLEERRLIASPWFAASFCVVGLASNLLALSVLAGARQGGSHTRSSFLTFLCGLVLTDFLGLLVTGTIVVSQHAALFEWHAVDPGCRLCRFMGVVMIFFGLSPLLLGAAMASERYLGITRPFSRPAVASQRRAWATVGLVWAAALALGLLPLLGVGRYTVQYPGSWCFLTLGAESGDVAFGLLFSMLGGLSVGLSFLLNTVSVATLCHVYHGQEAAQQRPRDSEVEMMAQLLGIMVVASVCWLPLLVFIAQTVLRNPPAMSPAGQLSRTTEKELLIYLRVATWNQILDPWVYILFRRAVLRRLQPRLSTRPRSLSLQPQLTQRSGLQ
Sequence of Prostaglandin E2 receptor EP3 subtype (P43115 whole entry): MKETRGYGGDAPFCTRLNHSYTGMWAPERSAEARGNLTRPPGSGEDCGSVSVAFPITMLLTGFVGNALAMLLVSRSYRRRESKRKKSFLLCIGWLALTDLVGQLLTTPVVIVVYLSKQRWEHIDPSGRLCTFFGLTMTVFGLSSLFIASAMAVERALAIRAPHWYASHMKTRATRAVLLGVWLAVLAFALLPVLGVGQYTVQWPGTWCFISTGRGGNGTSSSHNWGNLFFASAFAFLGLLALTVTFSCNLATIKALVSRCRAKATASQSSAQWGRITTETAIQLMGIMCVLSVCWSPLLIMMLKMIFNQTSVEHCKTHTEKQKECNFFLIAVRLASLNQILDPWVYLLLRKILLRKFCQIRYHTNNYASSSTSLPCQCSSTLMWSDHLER
Sequence of Leukotriene B4 receptor 1 (Homo sapiens) (Q15722 whole entry): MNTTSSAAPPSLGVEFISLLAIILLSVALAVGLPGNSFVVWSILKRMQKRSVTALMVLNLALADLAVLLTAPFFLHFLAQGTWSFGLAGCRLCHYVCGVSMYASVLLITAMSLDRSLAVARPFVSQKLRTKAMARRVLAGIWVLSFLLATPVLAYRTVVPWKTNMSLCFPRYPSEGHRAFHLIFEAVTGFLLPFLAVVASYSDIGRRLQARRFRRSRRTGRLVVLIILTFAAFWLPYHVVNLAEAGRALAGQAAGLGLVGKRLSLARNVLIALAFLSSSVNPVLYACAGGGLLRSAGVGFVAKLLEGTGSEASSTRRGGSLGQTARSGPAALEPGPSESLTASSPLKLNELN
Sequence of Prostaglandin D2 receptor (Q13258 whole entry): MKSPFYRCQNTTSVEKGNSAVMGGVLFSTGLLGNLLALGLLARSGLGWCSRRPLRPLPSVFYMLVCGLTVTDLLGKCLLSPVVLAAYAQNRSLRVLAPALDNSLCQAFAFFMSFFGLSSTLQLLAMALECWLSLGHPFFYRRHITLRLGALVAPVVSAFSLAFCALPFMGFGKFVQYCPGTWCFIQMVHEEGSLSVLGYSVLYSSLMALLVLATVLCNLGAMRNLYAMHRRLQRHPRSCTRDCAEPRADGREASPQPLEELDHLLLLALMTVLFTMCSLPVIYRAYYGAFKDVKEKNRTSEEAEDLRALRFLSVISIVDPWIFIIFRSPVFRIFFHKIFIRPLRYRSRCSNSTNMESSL
Sequence of Cysteinyl leukotriene receptor 1 (Homo sapiens) (Q9Y271 whole entry): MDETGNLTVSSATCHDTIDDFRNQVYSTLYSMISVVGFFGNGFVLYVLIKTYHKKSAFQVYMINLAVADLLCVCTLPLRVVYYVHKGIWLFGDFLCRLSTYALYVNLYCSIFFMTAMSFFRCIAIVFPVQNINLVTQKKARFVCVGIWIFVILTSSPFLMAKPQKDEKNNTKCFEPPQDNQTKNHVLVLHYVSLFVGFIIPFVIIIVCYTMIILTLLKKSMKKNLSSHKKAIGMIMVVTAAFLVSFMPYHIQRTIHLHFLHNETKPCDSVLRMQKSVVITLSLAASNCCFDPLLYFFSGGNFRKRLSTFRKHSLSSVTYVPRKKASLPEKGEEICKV
Sequence of Cytochrome P450 1A2 (P05177 whole entry): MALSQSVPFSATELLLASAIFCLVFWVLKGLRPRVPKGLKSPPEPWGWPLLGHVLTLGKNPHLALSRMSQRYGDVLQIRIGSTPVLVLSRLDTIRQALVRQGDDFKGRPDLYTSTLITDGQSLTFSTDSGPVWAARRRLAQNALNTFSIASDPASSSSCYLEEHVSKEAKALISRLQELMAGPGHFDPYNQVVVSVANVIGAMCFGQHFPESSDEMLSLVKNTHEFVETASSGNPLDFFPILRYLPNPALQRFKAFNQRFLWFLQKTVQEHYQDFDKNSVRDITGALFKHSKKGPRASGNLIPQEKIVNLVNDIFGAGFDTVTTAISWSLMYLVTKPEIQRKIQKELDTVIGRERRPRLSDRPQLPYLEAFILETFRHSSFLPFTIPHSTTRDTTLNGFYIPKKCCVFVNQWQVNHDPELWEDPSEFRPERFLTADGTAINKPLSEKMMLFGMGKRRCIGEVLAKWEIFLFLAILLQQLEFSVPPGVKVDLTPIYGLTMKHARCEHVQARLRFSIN

pKi [1]: 5.97
SMILES: Cc1c(CC(=O)O)c2cccnc2n1Cc1cccnc1

pKi [1]: 6.20
SMILES: Cc1c(CC(=O)O)c2cccnc2n1Cc1ccccc1Cl

fold change (FC) [2]: 4.1
pIC50 [3]: 6.32
pKi [1]: 6.83
inhibition [4]: inactive
inhibition [5]: inactive
SMILES: Cc1c(CC(=O)O)c2cccnc2n1Cc1ccc(Cl)cc1

fold change (FC) [2]: 0.9
pIC50 [3]: 6.83
pKi [1]: 6.68
SMILES: Cc1c(CC(=O)O)c2cccnc2n1Cc1ccc(S(=O)(=O)C(F)(F)F)cc1

fold change (FC) [2]: 4.1
SMILES: Cc1c(CC(=O)O)c2cccnc2n1Cc1ccc([N+](=O)[O-])cc1

fold change (FC) [2]: 3.8
pIC50 [3]: 6.25
inhibition [4]: inactive
inhibition [5]: inactive
pIC50 [6]: 6.97
SMILES: Cc1c(CC(=O)O)c2cccnc2n1S(=O)(=O)c1ccc(Cl)cc1

fold change (FC) [2]: 1.3
SMILES: Cc1c(CC(=O)O)c2cccnc2n1S(=O)(=O)c1ccc(F)c(F)c1

fold change (FC) [2]: 3.1
pIC50 [3]: 6.63
pKi [1]: 6.60
SMILES: Cc1c(CC(=O)O)c2cccnc2n1Cc1ccc([S+](C)[O-])cc1 (racemic)

pKi [1]: 5.65
SMILES: Cc1c(CC(=O)O)c2cccnc2n1Cc1ccncc1

pKi [1]: 5.53
SMILES: Cc1c(CC(=O)O)c2cccnc2n1Cc1ccccn1

pIC50 [7]: 7.03
bioavailability [8]: 35%
pKi [9]: 8.00
AUC(0-t) at 48 h [10]: 128 µM·h
bioavailability [11]: 54%
AUC(0-t) at 48 h [12]: 6.06 µM·h
Tmax [13]: 39.6 min
Tmax [14]: 39.6 min
Cmax [15]: 2.6 µM
Cmax [16]: 42.7 µM
Vd [17]: 5.5 L/kg
half-life [18]: 1030 min
solubility [19]: 5200 µg/mL (≈ 14.5 mM)
clearance [20]: 15.2 mL/min/kg
Papp A→B [21]: 0.9 ×10⁻⁶ cm/s
Papp B→A [22]: 2.2 ×10⁻⁶ cm/s
fold change (FC) [2]: 3.1
pIC50 [3]: 7.43
pKi [1]: 7.44
Cmax [23]: 7.6 µM
inhibition [24]: inactive
inhibition [4]: inactive
inhibition [5]: inactive
inhibition [25]: inactive
pIC50 (Thromboxane A2 receptor): < 5.00
pIC50 [26]: < 5.00
pIC50 [27]: < 5.00
pIC50 [28]: < 5.00
pIC50 (Prostacyclin receptor): < 5.00
pIC50 [29]: < 5.00
pIC50 [30]: < 5.00
pIC50 (Cytochrome P450 2D6): < 4.00
pIC50 (Cytochrome P450 3A4): < 4.00
pIC50 (Cytochrome P450 1A2): < 4.00
pIC50 (Cytochrome P450 2C9): < 4.00
inhibition [31]: inactive
inhibition [32]: inactive
fraction unbound [35]: 0.34
pIC50 [36]: 7.60
pIC50 [37]: 7.23
SMILES: Cc1c(CC(=O)O)c2cccnc2n1Cc1ccc(S(C)(=O)=O)cc1 [QAV680]
inhibition (Mus musculus): Dose-dependent effect
minimal effective dose (Mus musculus; read-out: MED): 10 mg/kg
Activity (Rattus norvegicus [33]): Dose-dependent effect
Activity (Rattus norvegicus [34]): Active

fold change (FC) [2]: 3.6
pIC50 [3]: 6.26
pKi [1]: 6.42
SMILES: Cc1c(CC(=O)O)c2cccnc2n1Cc1ccc(C#N)cc1
